Data taken from patent publication US12403132B2, “Methods of treating bone marrow failure syndromes and compositions for use in the same” (The Board of Trustees of the Leland Stanford Junior …, priority 2020, dated 2025).
Like-named read-outs stand apart in the source and are kept apart here. One block for each molecule: values may come before it.

Legend:
NLK = biological target: T1, NLK (Homo sapiens, UniProt Q9UBE8); test: Kinase assay of NLK immunopurified from treated differentiating human progenitors; type: cell-based; set-up: 5000 cells per treatment were lysed and immunopurified NLK was subjected to in vitro kinase assay; endogenous in cells; host or cells: human cord blood CD34+ HSPCs transduced with shLuc / shRPS19 / shRPL11, differentiating in erythroid medium; settings: for reduction in kinase activity of NLK immuno-precipitated from treated cultures: RPS19-insufficient human progenitors
T1 sequence (Q9UBE8 1-527): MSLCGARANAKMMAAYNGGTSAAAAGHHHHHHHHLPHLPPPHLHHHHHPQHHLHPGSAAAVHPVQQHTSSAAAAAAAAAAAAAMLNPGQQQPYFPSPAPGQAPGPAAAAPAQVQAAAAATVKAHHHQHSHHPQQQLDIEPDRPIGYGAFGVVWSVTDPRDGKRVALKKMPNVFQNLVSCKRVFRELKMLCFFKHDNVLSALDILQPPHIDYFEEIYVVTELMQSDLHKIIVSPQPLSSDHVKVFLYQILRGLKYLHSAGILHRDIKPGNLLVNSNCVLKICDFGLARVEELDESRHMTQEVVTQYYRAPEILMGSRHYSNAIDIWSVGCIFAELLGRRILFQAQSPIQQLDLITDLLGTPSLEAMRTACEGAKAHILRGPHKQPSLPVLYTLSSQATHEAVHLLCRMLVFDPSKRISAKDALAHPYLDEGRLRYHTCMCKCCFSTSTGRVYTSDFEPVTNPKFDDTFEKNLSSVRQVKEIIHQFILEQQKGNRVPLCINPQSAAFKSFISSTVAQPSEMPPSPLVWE
Description: FIG. 7. SD208 increases erythroid expansion in human model of DBA through inhibition of NLK and not TGFβ. (a) Differentiating cord blood CD34+ progenitors were transduced with shRNA against luciferase or RPS19 and treated with inhibitors at working concentrations for TGFβ inhibition every three days. Cells were counted and CD235+ erythroid cells were assessed by flow cytometry after 15 days. (b) Prior to flow cytometry, 5000 cells per group were taken from differentiating cultures for NLK kinase assay. (c) CD34+ progenitors were transduced with shRNA against luciferase or RPS19 and non-targeting or siRNA against NLK. After sorting, samples were split into two groups and either treated with vehicle or SD208 every three days. After 15 days cells were counted and subject to flow cytometry to compare the expansion of maturing CD235+ erythroid (left panel) and CD11b+ myeloid cells (right panel). (d) Cord Blood CD34+ progenitors were transduced with shRNA against luciferase (left panel) or RPS19 (right panel) differentiated in erythroid media for 15 days alone, or in the presence of SB525334 or SD208 at 5 μM. Cells were counted and CD235+ erythroid (D—upper) and CD11b+ myeloid cell (D—lower) percentages were determined by flow cytometry. The number of erythroid or myeloid cells is expressed as a percentage of the number of that lineage with no cytokine or drug treatment.
FIG. 8. NLK inhibition increases expansion of erythroid progenitors from human and murine models of DBA. Human cord blood CD34+ progenitors were transduced with lentivirus co-expressing GFP with shRNA against luciferase (shLuc), RPS19 (shRPS19) or RPL11 (shRPL11). After 36 hours cells GFP+ cells were differentiated in erythroid media in the presence or absence of 5 μM SD208 for 15 days. Cells were counted and assessed for cell surface expression of CD235. (a) The percentage of CD235+ cells was multiplied by the cell count and values were compared as a percentage of untreated controls. (b) Normalizing values relative to untreated RPS19-insufficiency progenitors facilitates direct comparison of erythropoiesis between untreated and SD208-treated cultures. (c) Approximately 3000 cells were removed from differentiating treatments at day 6 and NLK activity was assessed. Values were normalized to reflect a fold induction relative to untreated controls. (d) Lin-Kit+ hematopoietic progenitors were obtained from three mouse embryos expressing tetracycline-inducible shRNA against RPS19 at day E14.5 or three untreated mice, and thee mature RPL11^+/+ or three mature RPL11^+/lox mice treated with tamoxifen for eight weeks. Cells were grown in the presence or absence of doxycycline and/or SD208 for eight days prior to counting and assessing for ter119 surface expression. Values were expressed as a percentage relative to untreated controls (e) and directly comparing the effect of SD208 on erythropoiesis in ribosomal-insufficiency by expressing values relative to untreated ribosome-insufficient cultures (f). At day 5 approximately 3000 cells were assayed for NLK kinase assay (g). CD34+ HSPCs were isolated from three healthy control and three DBA patient mononuclear bone marrow aspirates by magnetic bead sorting and differentiated in the presence or absence of SD208 for 14 days. After counting the total cell population, the ratio of CD235+ erythroblasts was determined by flow cytometry and number of CD235+ erythroblasts calculated. This was expressed as a percentage of the average number of erythroid cells present in untreated healthy controls. (h) The direct effect of SD208 on erythroid expansion in DBA patient samples was calculated following normalization of untreated DBA patient samples as 1-fold, (i) At day five, 3000 cells from each of the differentiating cultures was analyzed for NLK activity by kinase assay and are expressed as a fold induction relative to untreated healthy controls. […]

CD235+ erythroblasts = test: CD235+ erythroid expansion of differentiating human cord blood CD34+ progenitors (shRPS19/shRPL11 DBA models), flow cytometry; type: cell-based; set-up: increase of erythroid expansion / impact on erythropoiesis in healthy controls / erythroid expansion in RPS19-insufficiency: dose or concentration left out as unconfirmed; settings: for erythroid expansion in RPS19-insufficiency: alone and combined; for increase of CD235+ erythroid expansion / CD235+ erythroid expansion, % of control: 50 mM metformin; for CD235+ erythroid expansion, % of control: 14 days
[1] = RPS19-insufficient progenitors, 50 mM metformin, 5 days

reduction in kinase activity of NLK immuno-precipitated from treated cultures (NLK): 61.2%
SMILES: Cc1cccc(-c2nn3c(c2-c2ccnc4ccc(C(N)=O)cc24)CCC3)n1 [Galunisertib]

reduction in kinase activity of NLK immuno-precipitated from treated cultures (NLK): 73.6%
SMILES: NC(=O)c1ccc(-c2nc(-c3ccc4c(c3)OCO4)c(-c3ccccn3)[nH]2)cc1 [SB431542]

NLK activity, NLK phosphorylation, fold of untreated controls (NLK; RPL11-insufficiency with SD208 5 μM, 3.0-fold without): 1.2 fold
NLK activity, Myb phosphorylation, fold of untreated controls (NLK; RPL11-insufficiency with SD208 5 μM, 4.6-fold without): 1.38 fold
NLK activity, raptor phosphorylation, fold of untreated controls (NLK; RPL11-insufficiency with SD208 5 μM, 7.3-fold without): 1.6 fold
NLK activity, NLK phosphorylation, fold of untreated controls (NLK; RPS19-insufficiency with SD208 5 μM, 3.5-fold without): 1.2 fold
NLK activity, Myb phosphorylation, fold of untreated controls (NLK; RPS19-insufficiency with SD208 5 μM, 5.2-fold without): 1.5 fold
NLK activity, raptor phosphorylation, fold of untreated controls (NLK; RPS19-insufficiency with SD208 5 μM, 8.4-fold without): 1.7 fold
reduction in kinase activity of NLK immuno-precipitated from treated cultures (NLK): 92.5%
SMILES: Fc1ccc(Cl)cc1-c1nc(Nc2ccncc2)c2nccnc2n1 [SD208]
CD235+ erythroblast expansion, % of controls (CD235+ erythroblasts; RPS19-insufficient, SD208 and/or siRNA against NLK, 15 days): 40.3%
erythroid expansion, % of untreated controls (CD235+ erythroblasts; control shRNA, SD208 5 μM, 15 days): approximately 105%

Continued, molecule first:

SMILES: CC(C)=CCC[C@](C)(O[C@@H]1O[C@H](CO[C@@H]2O[C@H](CO)[C@@H](O)[C@H](O)[C@H]2O)[C@@H](O)[C@H](O)[C@H]1O)[C@H]1CC[C@]2(C)[C@@H]1[C@H](O)C[C@@H]1[C@@]3(C)CC[C@H](O[C@@H]4O[C@H](CO)[C@@H](O)[C@H](O)[C@H]4O[C@@H]4O[C@H](CO)[C@@H](O)[C@H](O)[C@H]4O)C(C)(C)[C@@H]3CC[C@]12C [ginsenoside Rb1]
concentration at which 90% potency is achieved (CD235+ erythroblasts): 8.6 mM
impact on erythropoiesis in healthy controls (CD235+ erythroblasts): did not significantly impact
improvement of erythroid expansion (CD235+ erythroblasts; RPS19-insufficiency, ginsenoside and/or siRNA against NLK): 2.7 fold
increase of erythroid expansion (CD235+ erythroblasts; RPS19-insufficiency, miRNA and/or drug): 2.52 fold
increase of erythroid expansion (CD235+ erythroblasts; RPS19-insufficient progenitors): 2.6 fold
erythroid expansion in RPS19-insufficiency (CD235+ erythroblasts): 20.9%
EC50 (CD235+ erythroblasts; read-out: EC50 value (erythroid expansion)): 2.3 mM

SMILES: CN(C)C(=N)N=C(N)N [metformin]
concentrations at which significant erythroid improvement was detected (CD235+ erythroblasts): above 8 mM
EC50 (CD235+ erythroblasts; Homo sapiens, read-out: EC50 (erythroid expansion)): 11.4 mM
increase of CD235+ erythroid expansion (CD235+ erythroblasts; RPL11-insufficiency): 2.0 fold
CD235+ erythroid expansion, % of control (CD235+ erythroblasts; RPL11-insufficiency, 16.4% untreated): 32.7%
improvement of erythropoiesis (CD235+) (CD235+ erythroblasts; RPS19-insufficiency (8.3% of controls untreated), 12 days): 3.6 fold
increase of CD235+ erythroid expansion (CD235+ erythroblasts; RPS19-insufficiency): 5.9 fold
CD235+ erythroid expansion, % of control (CD235+ erythroblasts; RPS19-insufficiency, 5.7% untreated): 33.3%
erythroid expansion in RPS19-insufficiency (CD235+ erythroblasts): 28.4%
reduction of phosphorylation of NLK (NLK; [1]): 48.5%
reduction of phosphorylation of c-Myb (NLK; [1]): 39.8%
reduction of phosphorylation of raptor (NLK; [1]): 40.2%
